Source: US12291519B2, “2-hydroxycycloalkane-1-carbamoyl” (Idorsia Pharmaceuticals Ltd, priority 2019, dated 2025)

Assays:
human Gal-3 (hGal-3) = human Gal-3 (hGal-3) (Homo sapiens (Human), UniProt P17931); assay: Competitive binding assay: biotinylated hGal-3 binding to microplate-adsorbed asialofetuin (ASF); conditions: Activity on hGal-3; binding of biotinylated hGal-3 to ASF-coated plates; mean values
Method in brief: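 Serially diluted compounds competed with biotinylated human Gal-3 for binding to plate-adsorbed asialofetuin over 3 h at 4 °C. Bound Gal-3 was detected with streptavidin-peroxidase (80 ng/mL, 1 h, 4 °C) and ABTS substrate. IC50 values are means of several measurements.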

human Gal-1 (hGal-1) = assay: Competitive binding assay: biotinylated hGal-1 binding to microplate-adsorbed asialofetuin (ASF); conditions: Activity on hGal-1; binding of biotinylated hGal-1 to ASF-coated plates; mean values
human Gal-1 (hGal-1), sequence (P09382 2-135 limits assumed): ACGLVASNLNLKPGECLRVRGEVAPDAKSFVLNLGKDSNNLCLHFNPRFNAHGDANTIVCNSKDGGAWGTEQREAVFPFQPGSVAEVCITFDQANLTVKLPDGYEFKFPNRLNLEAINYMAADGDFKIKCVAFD
Method in brief: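 Inhibition measured as loss of hGal-1 (biotinylated, 300–1000 ng/mL, wild type or Cys→Ser mutant) binding to adsorbed asialofetuin over 3 h at 4 °C. Bound lectin detected with streptavidin-HRP and ABTS (410 nm, 30–45 min); IC50 values averaged across repeat measurements.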

human Gal-3 (hGal-3), sequence (P17931 whole entry): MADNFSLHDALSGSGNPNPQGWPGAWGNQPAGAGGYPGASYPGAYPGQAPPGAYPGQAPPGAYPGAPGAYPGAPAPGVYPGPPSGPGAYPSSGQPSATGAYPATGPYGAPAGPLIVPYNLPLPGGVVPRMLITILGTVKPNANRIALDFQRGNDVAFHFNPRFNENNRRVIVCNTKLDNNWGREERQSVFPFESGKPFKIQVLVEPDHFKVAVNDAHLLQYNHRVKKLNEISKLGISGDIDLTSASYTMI

IC50 (human Gal-3 (hGal-3))	IC50 (human Gal-1 (hGal-1))	Compound
232 nM	4410 nM	Cc1ncncc1CN(C(=O)[C@@H]1O[C@H](CO)[C@H](O)[C@H](n2cc(-c3cc(F)c(F)c(F)c3)nn2)[C@H]1O)[C@H]1CCCC[C@@H]1O [Example 29, (2R,3R,4S,5R,6R)-3,5-dihydroxy-N-((1S,2S)-2-hydroxycyclohexyl)-6-(hydroxymethyl)-N-((4-methylpyrimidin-5-yl)methyl)-4-(4-(3,4,5-trifluorophenyl)-1H-1,2,3-triazol-1-yl)tetrahydro-2H-pyran-2-carboxamide]
212 nM	34500 nM	CC(=O)O[C@@H]1[C@@H](n2cc(-c3cc(F)c(F)c(F)c3)nn2)[C@@H](O)[C@@H](CO)O[C@H]1C(=O)N(Cc1nccn1C)[C@H]1CCCC[C@@H]1O [Example 42]
62 nM	3140 nM	CO[C@@H]1[C@@H](n2cc(-c3cc(F)c(Br)c(F)c3)nn2)[C@@H](O)[C@@H](CO)O[C@H]1C(=O)N(c1ccc(F)c(F)c1)[C@H]1CCCC[C@@H]1O [Example 152, (2R,3R,4S,5R,6R)-4-(4-(4-bromo-3,5-difluorophenyl)-1H-1,2,3-triazol-1-yl)-N-(3,4-difluorophenyl)-5-hydroxy-N-((1S,2S)-2-hydroxycyclohexyl)-6-(hydroxymethyl)-3-methoxytetrahydro-2H-pyran-2-carboxamide]
42 nM	417 nM	CO[C@@H]1[C@@H](n2cc(-c3cc(F)c(F)c(F)c3)nn2)[C@@H](O)[C@@H](CO)O[C@H]1C(=O)N(c1ccc(F)c(F)c1)[C@H]1CCCC[C@@H]1O [Example 56]
301 nM	22800 nM	O=C([C@@H]1O[C@H](CO)[C@H](O)[C@H](n2cc(-c3cc(F)c(F)c(F)c3)nn2)[C@H]1O)N(Cc1cccc(Cl)c1)[C@H]1CCCC[C@@H]1O [Example 2, (2R,3R,4S,5R,6R)-N-(3-chlorobenzyl)-3,5-dihydroxy-N-((1S,2S)-2-hydroxycyclohexyl)-6-(hydroxymethyl)-4-(4-(3,4,5-trifluorophenyl)-1H-1,2,3-triazol-1-yl)tetrahydro-2H-pyran-2-carboxamide]
123 nM	980 nM	COc1cnc2ccc(F)c(CN(C(=O)[C@@H]3O[C@H](CO)[C@H](O)[C@H](n4cc(-c5cc(F)c(F)c(F)c5)nn4)[C@H]3OC)[C@H]3CCCC[C@@H]3O)c2n1 [Example 64, (2R,3R,4S,5R,6R)-N-((6-fluoro-3-methoxyquinoxalin-5-yl)methyl)-5-hydroxy-N-((1S,2S)-2-hydroxycyclohexyl)-6-(hydroxymethyl)-3-methoxy-4-(4-(3,4,5-trifluorophenyl)-1H-1,2,3-triazol-1-yl)tetrahydro-2H-pyran-2-carboxamide]
143 nM	605 nM	CO[C@@H]1[C@@H](n2cc(-c3nc(Cl)cs3)nn2)[C@@H](O)[C@@H](CO)O[C@H]1C(=O)N(c1cccc(F)c1F)[C@H]1CCCC[C@@H]1O [Example 193, (2R,3R,4S,5R,6R)-4-(4-(4-chlorothiazol-2-yl)-1H-1,2,3-triazol-1-yl)-N-(2,3-difluorophenyl)-5-hydroxy-N-((1S,2S)-2-hydroxycyclohexyl)-6-(hydroxymethyl)-3-methoxytetrahydro-2H-pyran-2-carboxamide]
20 nM	242 nM	CO[C@@H]1[C@@H](n2cc(-c3ccc(Cl)cc3)nn2)[C@@H](O)[C@@H](CO)O[C@H]1C(=O)N(c1cc(Cl)cc(C#N)c1)[C@H]1CCCC[C@@H]1O [Example 201, (2R,3R,4S,5R,6R)-N-(3-chloro-5-cyanophenyl)-4-(4-(4-chlorophenyl)-1H-1,2,3-triazol-1-yl)-5-hydroxy-N-((1S,2S)-2-hydroxycyclohexyl)-6-(hydroxymethyl)-3-methoxytetrahydro-2H-pyran-2-carboxamide]
58 nM	1940 nM	CO[C@@H]1[C@@H](n2cc(-c3ccc(Br)c(F)c3)nn2)[C@@H](O)[C@@H](CO)O[C@H]1C(=O)N(c1ccc(F)c(F)c1)[C@H]1CCCC[C@@H]1O [Example 164, (2R,3R,4S,5R,6R)-4-(4-(4-bromo-3-fluorophenyl)-1H-1,2,3-triazol-1-yl)-N-(3,4-difluorophenyl)-5-hydroxy-N-((1S,2S)-2-hydroxycyclohexyl)-6-(hydroxymethyl)-3-methoxytetrahydro-2H-pyran-2-carboxamide]
26 nM	358 nM	CO[C@@H]1[C@@H](n2cc(-c3cc(F)c(F)c(F)c3)nn2)[C@@H](O)[C@@H](CO)O[C@H]1C(=O)N(c1ccc(F)c(Cl)c1)[C@H]1CCCC[C@@H]1O [Example 90, (2R,3R,4S,5R,6R)-N-(3-chloro-4-fluorophenyl)-5-hydroxy-N-((1S,2S)-2-hydroxycyclohexyl)-6-(hydroxymethyl)-3-methoxy-4-(4-(3,4,5-trifluorophenyl)-1H-1,2,3-triazol-1-yl)tetrahydro-2H-pyran-2-carboxamide]
17 nM	100 nM	CO[C@@H]1[C@@H](n2cc(-c3cc(F)c(F)c(F)c3)nn2)[C@@H](O)[C@@H](CO)O[C@H]1C(=O)N(c1cc(Br)ccc1C)[C@H]1CCCC[C@@H]1O [Example 109, (2R,3R,4S,5R,6R)-N-(5-bromo-2-methylphenyl)-5-hydroxy-N-((1S,2S)-2-hydroxycyclohexyl)-6-(hydroxymethyl)-3-methoxy-4-(4-(3,4,5-trifluorophenyl)-1H-1,2,3-triazol-1-yl)tetrahydro-2H-pyran-2-carboxamide]
21 nM	1140 nM	CO[C@@H]1[C@@H](n2cc(-c3ccc(F)c4ccccc34)nn2)[C@@H](O)[C@@H](CO)O[C@H]1C(=O)N(c1cc(Cl)cc(Cl)c1)[C@H]1CCCC[C@@H]1O [Example 192, (2R,3R,4S,5R,6R)-N-(3,5-dichlorophenyl)-4-(4-(4-fluoronaphthalen-1-yl)-1H-1,2,3-triazol-1-yl)-5-hydroxy-N-((1S,2S)-2-hydroxycyclohexyl)-6-(hydroxymethyl)-3-methoxytetrahydro-2H-pyran-2-carboxamide]
199 nM	4670 nM	COc1cccc(OC)c1CN(C(=O)[C@@H]1O[C@H](CO)[C@H](O)[C@H](n2cc(-c3cc(F)c(F)c(F)c3)nn2)[C@H]1OC)[C@H]1CCCC[C@@H]1O [Example 40, (2R,3R,4S,5R,6R)-N-(2,6-dimethoxybenzyl)-5-hydroxy-N-((1S,2S)-2-hydroxycyclohexyl)-6-(hydroxymethyl)-3-methoxy-4-(4-(3,4,5-trifluorophenyl)-1H-1,2,3-triazol-1-yl)tetrahydro-2H-pyran-2-carboxamide]
18 nM	569 nM	CO[C@@H]1[C@@H](n2cc(-c3ccc(C)c(F)c3)nn2)[C@@H](O)[C@@H](CO)O[C@H]1C(=O)N(c1cc(Cl)cc(C#N)c1)[C@H]1CCCC[C@@H]1O [Example 170, (2R,3R,4S,5R,6R)-N-(3-chloro-5-cyanophenyl)-4-(4-(3-fluoro-4-methylphenyl)-1H-1,2,3-triazol-1-yl)-5-hydroxy-N-((1S,2S)-2-hydroxycyclohexyl)-6-(hydroxymethyl)-3-methoxytetrahydro-2H-pyran-2-carboxamide]
321 nM	18000 nM	CO[C@@H]1[C@@H](n2cc(-c3cc(F)c(F)c(F)c3)nn2)[C@@H](O)[C@@H](CO)O[C@H]1C(=O)N(c1cc(C)n(C)n1)[C@H]1CCCC[C@@H]1O [Example 199, (2R,3R,4S,5R,6R)-N-(1,5-dimethyl-1H-pyrazol-3-yl)-5-hydroxy-N-((1S,2S)-2-hydroxycyclohexyl)-6-(hydroxymethyl)-3-methoxy-4-(4-(3,4,5-trifluorophenyl)-1H-1,2,3-triazol-1-yl)tetrahydro-2H-pyran-2-carboxamide]
26 nM	123 nM	CO[C@@H]1[C@@H](n2cc(-c3ccc(Cl)c(F)c3F)nn2)[C@@H](O)[C@@H](CO)O[C@H]1C(=O)N(c1cc(Cl)cc(C#N)c1)[C@H]1CCCC[C@@H]1O [Example 178, (2R,3R,4S,5R,6R)-4-(4-(4-chloro-2,3-difluorophenyl)-1H-1,2,3-triazol-1-yl)-N-(3-chloro-5-cyanophenyl)-5-hydroxy-N-((1S,2S)-2-hydroxycyclohexyl)-6-(hydroxymethyl)-3-methoxytetrahydro-2H-pyran-2-carboxamide]
281 nM	23100 nM	O=C([C@@H]1O[C@H](CO)[C@H](O)[C@H](n2cc(-c3cc(F)c(F)c(F)c3)nn2)[C@H]1O)N(Cc1ccc(Cl)o1)[C@H]1CCCC[C@@H]1O [Example 17, (2R,3R,4S,5R,6R)-N-((5-chlorofuran-2-yl)methyl)-3,5-dihydroxy-N-((1S,2S)-2-hydroxycyclohexyl)-6-(hydroxymethyl)-4-(4-(3,4,5-trifluorophenyl)-1H-1,2,3-triazol-1-yl)tetrahydro-2H-pyran-2-carboxamide]
56 nM	143 nM	CO[C@@H]1[C@@H](n2cc(-c3cc(F)c(F)c(F)c3)nn2)[C@@H](O)[C@@H](CO)O[C@H]1C(=O)N(c1cc2sc(C)nc2cc1C)[C@H]1CCCC[C@@H]1O [Example 106, (2R,3R,4S,5R,6R)-N-(2,5-dimethylbenzo[d]thiazol-6-yl)-5-hydroxy-N-((1S,2S)-2-hydroxycyclohexyl)-6-(hydroxymethyl)-3-methoxy-4-(4-(3,4,5-trifluorophenyl)-1H-1,2,3-triazol-1-yl)tetrahydro-2H-pyran-2-carboxamide]
464 nM	12400 nM	Cn1ccnc1CN(C(=O)[C@@H]1O[C@H](CO)[C@H](O)[C@H](n2cc(-c3cc(F)c(F)c(F)c3)nn2)[C@H]1O)[C@H]1CCCC[C@@H]1O [Example 41, (2R,3R,4S,5R,6R)-3,5-dihydroxy-N-((1S,2S)-2-hydroxycyclohexyl)-6-(hydroxymethyl)-N-((1-methyl-1H-imidazol-2-yl)methyl)-4-(4-(3,4,5-trifluorophenyl)-1H-1,2,3-triazol-1-yl)tetrahydro-2H-pyran-2-carboxamide]
